# Measured values from US20250296959A1, “B7-H3 TARGETING PEPTIDES AND CONSTRUCTS THEREOF” (Mariana Oncology Inc., priority 2024, published 2025).
# Starred links: 1 amine or outer side, 2 acyl side, 3 side chain; linkers in the order of their positions; H or OH if unused. Positions of bridges follow the written chain, without caps; N, C: chain ends. Non-standard residues stand in square brackets, D forms with d. Residues, ends and D or L forms follow the SMILES beside them. *: point of attachment. X7 = O=C(O)CN1CCN(CC(=O)O)CCN(CC(=O)NCCOCCOCCOCCOCCOCCOCCOCCOCC(=O)*)CCN(CC(=O)O)CC1; X9 = CC(=O)N[C@@H](CCC(C)C)C(O)N([C@@H](Cc1ccc(O)cc1)C(=O)[*:2])[*:1]; Ala(piperidin-4-yl) = O=C([C@H](CC1CCN([*:3])CC1)N[*:1])[*:2]; DOTA = O=C(O)CN1CCN(CC(=O)O)CCN(CC(=O)*)CCN(CC(=O)O)CC1; NH(CH2CH2O)4CH2CO = O=C(COCCOCCOCCOCCN[*:1])[*:2]; Phe(4-COOH) = N[C@@H](Cc1ccc(C(=O)O)cc1)C(=O)O; Trp(5-F) = N[C@@H](Cc1c[nH]c2ccc(F)cc12)C(=O)O; Trp(7-aza) = N[C@@H](Cc1c[nH]c2ncccc12)C(=O)O; PEG8 = NCCOCCOCCOCCOCCOCCOCCOCCOCCC(=O)O; Phe(4-F) = N[C@@H](Cc1ccc(F)cc1)C(=O)O; γGlu = O=C(O)[C@H](CCC(=O)[*:2])N[*:1]; 1Nal = N[C@@H](Cc1cccc2ccccc12)C(=O)O; Ala(4-THP) = N[C@@H](CC1CCOCC1)C(=O)O; Cha = N[C@@H](CC1CCCCC1)C(=O)O; Tle = CC(C)(C)[C@H](N)C(=O)O; hLeu = CC(C)CC[C@H](N)C(=O)O; Nle = CCCC[C@H](N)C(=O)O
# Molecular target: T1, human 4lg B7-H3 (Homo sapiens, UniProt Q5ZPR3)
# T1 sequence (Q5ZPR3 29-534): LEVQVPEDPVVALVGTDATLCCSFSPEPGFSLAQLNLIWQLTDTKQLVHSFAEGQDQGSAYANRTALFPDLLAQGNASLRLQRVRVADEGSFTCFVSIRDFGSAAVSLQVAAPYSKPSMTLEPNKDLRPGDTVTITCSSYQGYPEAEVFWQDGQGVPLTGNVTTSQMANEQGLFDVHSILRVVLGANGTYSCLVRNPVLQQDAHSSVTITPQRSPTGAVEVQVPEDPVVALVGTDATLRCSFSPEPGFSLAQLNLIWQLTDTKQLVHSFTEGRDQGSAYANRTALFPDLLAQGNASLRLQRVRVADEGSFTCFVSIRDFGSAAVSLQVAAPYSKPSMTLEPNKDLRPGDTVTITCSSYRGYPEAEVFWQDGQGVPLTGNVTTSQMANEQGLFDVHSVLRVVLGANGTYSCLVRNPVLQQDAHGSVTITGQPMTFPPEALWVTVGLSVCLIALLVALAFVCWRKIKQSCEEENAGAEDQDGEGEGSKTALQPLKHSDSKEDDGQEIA
# Experiment: Affinity determination by surface plasmon resonance (SPR) to 4Ig B7-H3
# Conditions: SPR KD—25° C., 4Ig B7-H3; 25° C. flow cell temperature
row,Kd,Compound
1,< 1 nM,"CC(=O)N[C@@H](CCC(C)C)C(=O)N[C@@H](Cc1ccc(O)cc1)C(=O)N[C@H]1CSSC[C@@H](C(=O)N[C@@H](Cc2cccc3ccccc23)C(=O)N[C@@H](Cc2ccccc2)C(=O)N2CCC[C@H]2C(=O)N[C@H](CCCCNC(=O)COCCOCCOCCOCCOCCOCCOCCOCCNC(=O)CN2CCN(CC(=O)O)CCN(CC(=O)O)CCN(CC(=O)O)CC2)C(N)=O)NC(=O)[C@H](Cc2ccc(O)cc2)NC(=O)[C@H](C(C)C)NC(=O)[C@H](CC(=O)O)NC(=O)[C@H](CC2CCOCC2)NC(=O)[C@H](CCCCN)NC(=O)CNC(=O)[C@H](C(C)(C)C)NC1=O [compound 280, Ac-hLeu-Y-C-Tbg-G-K-ThpA-D-V-Y-C-1Nal-F-Pro-dLys(PEG8-DOTA)-CONH2] (Ac-[hLeu]YC[Tle]GK[Ala(4-THP)]DVYC[1Nal]FP[dK](X7)-NH2; disulfide 3-11)"
2,1 to 10 nM,"CC(C)CC[C@H](NC(=O)CCOCCOCCOCCOCCOCCOCCOCCOCCNC(=O)CN1CCN(CC(=O)O)CCN(CC(=O)O)CCN(CC(=O)O)CC1)C(=O)N[C@@H](Cc1ccc(O)cc1)C(=O)N[C@H]1CSSC[C@@H](C(=O)N[C@@H](Cc2c[nH]c3ccc(F)cc23)C(=O)N[C@@H](Cc2ccccc2)C(=O)N2CCC[C@H]2C(N)=O)NC(=O)[C@H](Cc2ccc(O)cc2)NC(=O)[C@H](C(C)C)NC(=O)[C@H](CC(=O)O)NC(=O)[C@H](Cc2ccc(C(=O)O)cc2)NC(=O)[C@H](CC2CCNCC2)NC(=O)CNC(=O)[C@H](C(C)C)NC1=O [compound 285, DOTA-PEG8-hLeu-Y-C-V-G-PipAla-4COOHPhe-D-V-Y-C-5FW-F-Pro-CONH2] ({DOTA-PEG8}-[hLeu]YCVG[Ala(piperidin-4-yl)][Phe(4-COOH)]DVYC[Trp(5-F)]FP-NH2; disulfide 3-11)"
3,10 to 100 nM,"CCCC[C@@H]1NC(=O)[C@H](C(C)C)NC(=O)[C@H](CC(=O)O)NC(=O)[C@H](Cc2ccc(C(=O)O)cc2)NC(=O)[C@H](CCCCN)NC(=O)CNC(=O)[C@H](C(C)C)NC(=O)[C@@H](NC(=O)[C@H](Cc2ccc(O)cc2)NC(=O)[C@H](CCC(C)C)NC(C)=O)CSSC[C@@H](C(=O)N[C@@H](Cc2c[nH]c3ccc(F)cc23)C(=O)N[C@@H](Cc2ccccc2)C(=O)N2CCC[C@H]2C(=O)N[C@H](CCCCNC(=O)CN2CCN(CC(=O)O)CCN(CC(=O)O)CCN(CC(=O)O)CC2)C(N)=O)NC1=O [compound 287, Ac-hLeu-Y-C-V-G-K-4COOHPhe-D-V-Nle-C-5FW-F-Pro-dLys(DOTA)-CONH2] (Ac-[hLeu]YCVGK[Phe(4-COOH)]DV[Nle]C[Trp(5-F)]FP[dK](DOTA)-NH2; disulfide 3-11)"
4,1 to 10 nM,"CC(=O)N[C@@H](CCC(C)C)C(=O)N[C@@H](Cc1ccc(O)cc1)C(=O)N[C@H]1CSSC[C@@H](C(=O)N[C@@H](Cc2c[nH]c3ccc(F)cc23)C(=O)N[C@@H](Cc2ccccc2)C(=O)N2CCC[C@H]2C(N)=O)NC(=O)[C@H](Cc2ccc(O)cc2)NC(=O)[C@H](C(C)C)NC(=O)[C@H](CC(=O)O)NC(=O)[C@H](Cc2ccc(C(=O)O)cc2)NC(=O)[C@H](CCCCNC(=O)CN2CCN(CC(=O)O)CCN(CC(=O)O)CCN(CC(=O)O)CC2)NC(=O)CNC(=O)[C@H](C(C)C)NC1=O [compound 289, Ac-hLeu-Y-C-V-G-Lys(DOTA)-4COOHPhe-D-V-Y-C-5FW-F-Pro-CONH2] (Ac-[hLeu]YCVGK(DOTA)[Phe(4-COOH)]DVYC[Trp(5-F)]FP-NH2; disulfide 3-11)"
5,10 to 100 nM,"CCCC[C@@H]1NC(=O)[C@H](C(C)C)NC(=O)[C@H](CC(=O)O)NC(=O)[C@H](Cc2ccc(C(=O)O)cc2)NC(=O)[C@H](CCCCN)NC(=O)CNC(=O)[C@H](C(C)C)NC(=O)[C@@H](NC(=O)[C@H](Cc2ccc(O)cc2)NC(=O)[C@H](CCC(C)C)NC(=O)CCOCCOCCOCCOCCOCCOCCOCCOCCNC(=O)CN2CCN(CC(=O)O)CCN(CC(=O)O)CCN(CC(=O)O)CC2)CSSC[C@@H](C(=O)N[C@@H](Cc2c[nH]c3ccc(F)cc23)C(=O)N[C@@H](Cc2ccccc2)C(=O)N2CCC[C@H]2C(N)=O)NC1=O [compound 293, DOTA-PEG8-hLeu-Y-C-V-G-K-4COOHPhe-D-V-Nle-C-5FW-F-Pro-CONH2] ({DOTA-PEG8}-[hLeu]YCVGK[Phe(4-COOH)]DV[Nle]C[Trp(5-F)]FP-NH2; disulfide 3-11)"

# More lines, now with the values behind:
row,Compound,Kd
1,"CC(=O)N[C@@H](CCC(C)C)C(O)N[C@@H](Cc1ccc(O)cc1)C(=O)N[C@H]1CSSC[C@@H](C(=O)N[C@@H](Cc2cccc3ccccc23)C(=O)N[C@@H](Cc2ccccc2)C(=O)N2CCC[C@H]2C(=O)N[C@H](CCCCNC(=O)COCCOCCOCCOCCOCCOCCOCCOCCNC(=O)CN2CCN(CC(=O)O)CCN(CC(=O)O)CCN(CC(=O)O)CC2)C(N)=O)NC(=O)[C@H](Cc2ccc(O)cc2)NC(=O)[C@H](C(C)C)NC(=O)[C@H](CC(=O)O)NC(=O)[C@H](CC2CCCCC2)NC(=O)[C@H](CC2CCNCC2)NC(=O)CNC(=O)[C@H](C(C)(C)C)NC1=O (stereo partly drawn) [compound 281, Ac-hLeu-Y-C-Tbg-G-PipAla-CHA-D-V-Y-C-1Nal-F-Pro-dLys(PEG8-DOTA)-CONH2] (H-[X9]C[Tle]G[Ala(piperidin-4-yl)][Cha]DVYC[1Nal]FP[dK](X7)-NH2; disulfide 2-10)",1 to 10 nM
2,"CC(C)CC[C@H](NC(=O)COCCOCCOCCOCCNC(=O)CN1CCN(CC(=O)O)CCN(CC(=O)O)CCN(CC(=O)O)CC1)C(=O)N[C@@H](Cc1ccc(F)cc1)C(=O)N[C@H]1CSSC[C@@H](C(=O)N[C@@H](Cc2cccc3ccccc23)C(=O)N[C@@H](Cc2ccccc2)C(=O)N2CCC[C@H]2C(N)=O)NC(=O)[C@H](Cc2ccc(O)cc2)NC(=O)[C@H](C(C)C)NC(=O)[C@H](CC(=O)O)NC(=O)[C@H](CC2CCOCC2)NC(=O)[C@H](CC2CCNCC2)NC(=O)CNC(=O)[C@H](C(C)(C)C)NC1=O [compound 283, DOTA-PEG4-hLeu-4FPhe-C-Tbg-G-PipAla-ThpA-D-V-Y-C-1Nal-F-Pro-CONH2] ({DOTA}-[NH(CH2CH2O)4CH2CO][hLeu][Phe(4-F)]C[Tle]G[Ala(piperidin-4-yl)][Ala(4-THP)]DVYC[1Nal]FP-NH2; disulfide 4-12)",10 to 100 nM
3,"CC(C)CC[C@H](NC(=O)CC[C@H](NC(=O)CN1CCN(CC(=O)O)CCN(CC(=O)O)CCN(CC(=O)O)CC1)C(=O)O)C(=O)N[C@@H](Cc1c[nH]c2ncccc12)C(=O)N[C@H]1CSSC[C@@H](C(=O)N[C@@H](Cc2cccc3ccccc23)C(=O)N[C@@H](Cc2ccccc2)C(=O)N2CCC[C@H]2C(N)=O)NC(=O)[C@H](Cc2ccc(O)cc2)NC(=O)[C@H](C(C)C)NC(=O)[C@H](CC(=O)O)NC(=O)[C@H](CC2CCOCC2)NC(=O)[C@H](CC2CCNCC2)NC(=O)CNC(=O)[C@H](C(C)(C)C)NC1=O [compound 284, DOTA-gE-hLeu-7AzaW-C-Tbg-G-PipAla-ThpA-D-V-Y-C-1Nal-F-Pro-CONH2] ({DOTA-γGlu}-[hLeu][Trp(7-aza)]C[Tle]G[Ala(piperidin-4-yl)][Ala(4-THP)]DVYC[1Nal]FP-NH2; disulfide 3-11)",10 to 100 nM
4,"CC(=O)N[C@@H](CCC(C)C)C(=O)N[C@@H](Cc1ccc(O)cc1)C(=O)N[C@H]1CSSC[C@@H](C(=O)N[C@@H](Cc2c[nH]c3ccc(F)cc23)C(=O)N[C@@H](Cc2ccccc2)C(=O)N2CCC[C@H]2C(=O)O)NC(=O)[C@H](Cc2ccc(O)cc2)NC(=O)[C@H](C(C)C)NC(=O)[C@H](CC(=O)O)NC(=O)[C@H](Cc2ccc(C(=O)O)cc2)NC(=O)[C@H](CCCCNC(=O)CN2CCN(CC(=O)O)CCN(CC(=O)O)CCN(CC(=O)O)CC2)NC(=O)CNC(=O)[C@H](C(C)C)NC1=O [compound 290, Ac-hLeu-Y-C-V-G-Lys(DOTA)-4COOHPhe-D-V-Y-C-5FW-F-Pro-COOH] (Ac-[hLeu]YCVGK(DOTA)[Phe(4-COOH)]DVYC[Trp(5-F)]FP-OH; disulfide 3-11)",100 to 300 nM
5,"CC(=O)N[C@@H](CCC(C)C)C(=O)N[C@@H](Cc1ccc(O)cc1)C(=O)N[C@H]1CSSC[C@@H](C(=O)N[C@@H](Cc2c[nH]c3ccc(F)cc23)C(=O)N[C@@H](Cc2ccccc2)C(=O)N2CCC[C@H]2C(=O)N[C@H](CCCCNC(=O)CN2CCN(CC(=O)O)CCN(CC(=O)O)CCN(CC(=O)O)CC2)C(N)=O)NC(=O)[C@H](Cc2ccc(O)cc2)NC(=O)[C@H](C(C)C)NC(=O)[C@H](CC(=O)O)NC(=O)[C@H](Cc2ccc(C(=O)O)cc2)NC(=O)[C@H](CCCCN)NC(=O)CNC(=O)[C@H](C(C)C)NC1=O [compound 291, Ac-hLeu-Y-C-V-G-K-4COOHPhe-D-V-Y-C-5FW-F-Pro-dLys(DOTA)-CONH2] (Ac-[hLeu]YCVGK[Phe(4-COOH)]DVYC[Trp(5-F)]FP[dK](DOTA)-NH2; disulfide 3-11)",< 1 nM
6,"CC(=O)N[C@@H](CCC(C)C)C(=O)N[C@@H](Cc1ccc(O)cc1)C(=O)N[C@H]1CSSC[C@@H](C(=O)N[C@@H](Cc2c[nH]c3ccc(F)cc23)C(=O)N[C@@H](Cc2ccccc2)C(=O)N2CCC[C@H]2C(N)=O)NC(=O)[C@H](Cc2ccc(O)cc2)NC(=O)[C@H](C(C)C)NC(=O)[C@H](CC(=O)O)NC(=O)[C@H](CC2CCOCC2)NC(=O)[C@H](CCCCNC(=O)CN2CCN(CC(=O)O)CCN(CC(=O)O)CCN(CC(=O)O)CC2)NC(=O)CNC(=O)[C@H](C(C)C)NC1=O [compound 292, Ac-hLeu-Y-C-V-G-Lys(DOTA)-ThpA-D-V-Y-C-5FW-F-Pro-CONH2] (Ac-[hLeu]YCVGK(DOTA)[Ala(4-THP)]DVYC[Trp(5-F)]FP-NH2; disulfide 3-11)",1 to 10 nM
